Measurements published in PubChem BioAssay (NCI).
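Compound exposure: 48 hours, 5 concentrations, 96-well plates. The concentration for 50% growth inhibition is given as GI50. TGI: concentration producing complete growth inhibition.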

What was measured:
Assay in all cases: DTP human tumour cell line panel, 48 h
[1] = tested on: SK-MEL-2 melanoma
[2] = tested on: SK-MEL-5 melanoma
[3] = tested on: MDA-MB-231 breast
[4] = tested on: SNB-19 CNS
[5] = tested on: OVCAR-5 ovarian
[6] = tested on: U251 CNS
[7] = tested on: IGROV1 ovarian
[8] = tested on: A549 NSCLC
[9] = tested on: SW-620 colon
[10] = tested on: OVCAR-3 ovarian

| Compound | GI50 [1] | TGI [1] | GI50 [2] | TGI [2] | GI50 [3] | GI50 [4] | TGI [4] | GI50 [5] | TGI [5] | GI50 [6] | TGI [6] | GI50 [7] | TGI [7] | GI50 [8] | TGI [8] | GI50 [9] | TGI [9] | GI50 [10] | TGI [10] | TGI [3] |
| --- | --- | --- | --- | --- | --- | --- | --- | --- | --- | --- | --- | --- | --- | --- | --- | --- | --- | --- | --- | --- |
| Nc1n[nH]c2ccc([C@@H]3Nc4cc5c(cc4[C@H]4C6CCC(C6)[C@@H]34)C(=O)NC5)cc12 (some centres undefined) | 15 µM | > 100 µM | 0.232 µM | 0.612 µM | 0.436 µM | 0.57 µM | > 100 µM | 1.06 µM | > 100 µM | 0.418 µM | > 100 µM | 0.417 µM | > 100 µM | 1.56 µM | > 100 µM | 0.362 µM | > 100 µM | 0.305 µM | 1.19 µM | – |
| COc1cc2cc(Oc3ccc(NC(=O)c4ccc(Cl)c(Cl)c4)cc3)c(C)nc2cc1OC | > 100 µM | > 100 µM | 4.99 µM | > 100 µM | 9.89 µM | > 100 µM | > 100 µM | > 100 µM | > 100 µM | > 100 µM | > 100 µM | > 100 µM | > 100 µM | > 100 µM | > 100 µM | > 100 µM | > 100 µM | 9.34 µM | > 100 µM | > 100 µM |
| CCC(=O)Nc1ccc(N2C(=O)/C(=C/c3ccc(OC)cc3)N=C2c2ccccc2)cc1 | > 50 µM | > 50 µM | 7.16 µM | > 50 µM | 4.31 µM | 14.1 µM | > 50 µM | > 50 µM | > 50 µM | 1.66 µM | 8.87 µM | 14.1 µM | > 50 µM | 6.27 µM | 27 µM | 1.38 µM | > 50 µM | > 50 µM | > 50 µM | 14.5 µM |
| CN1CCN(CCCCCN=c2cc3c(=O)n(CCCCCN4CCN(C)CC4)c(=O)c4c(NCCCCCN5CCN(C)CC5)cc5c(O)n(CCCCCN6CCN(C)CC6)c(=O)c2c5c4-3)CC1 | 2.69 µM | 7.43 µM | 14.1 µM | 58.8 µM | 2.38 µM | 2.14 µM | 7.16 µM | 2.13 µM | 7.79 µM | 2.21 µM | 6.68 µM | 5.7 µM | 29.4 µM | 2.92 µM | 8.64 µM | 3.31 µM | 31.6 µM | 3.23 µM | 9.92 µM | 7.22 µM |
| Cc1cc(C)c(C2CNCc3cc4c(cc32)CNCC4c2c(C)cc(C)cc2C)c(C)c1 (centres undefined) | 2.92 µg/mL | 7.4 µg/mL | 2 µg/mL | 3.96 µg/mL | 2.42 µg/mL | 3.46 µg/mL | 11 µg/mL | 8.38 µg/mL | 20.4 µg/mL | 2.54 µg/mL | 5.59 µg/mL | 4.68 µg/mL | 18 µg/mL | 4.53 µg/mL | 15.8 µg/mL | 3.11 µg/mL | 11.5 µg/mL | 1.91 µg/mL | 4.27 µg/mL | 11.4 µg/mL |
| CCCCNc1nc(NC2OCC(OC(C)=O)C(OC(C)=O)C2OC(C)=O)c(N=O)c(=O)n1C (centres undefined) | – | > 10 µM | – | > 10 µM | – | – | > 10 µM | – | > 10 µM | – | > 10 µM | – | > 10 µM | – | > 10 µM | – | > 10 µM | – | > 10 µM | > 10 µM |
| COc1cc(/C=C/c2ccc3c(Br)cc(Br)c(O)c3n2)ccc1O | 6.11 µM | 22.2 µM | 1.47 µM | 10.3 µM | 7.39 µM | 2.67 µM | 15.2 µM | 1.49 µM | 5.84 µM | 0.636 µM | 10.9 µM | 1.54 µM | 13.6 µM | 1.21 µM | 12.9 µM | 2.24 µM | 13 µM | 1.66 µM | 9.12 µM | 22 µM |
| O=C(CN1N=C(c2ccc(F)cc2)CCC1=O)Nc1nc2ccccc2s1 | > 89.8 µM | > 100 µM | > 93.2 µM | > 100 µM | 1.24 µM | > 96.7 µM | > 100 µM | 3.39 µM | > 92.1 µM | 2.08 µM | 4.69 µM | 0.165 µM | 0.361 µM | 13.7 µM | > 100 µM | > 49.5 µM | > 100 µM | 1.99 µM | 4.16 µM | 3.47 µM |
| C[C@@H]1Cc2cc(O)ccc2[C@H]2CC[C@]3(C)/C(=C/COCCN(C)C)CC[C@H]3[C@H]12 (tested in a mixture with another compound) | 0.323 µM | 0.845 µM | 0.205 µM | 0.453 µM | 0.833 µM | 0.364 µM | 1.34 µM | 0.251 µM | 0.724 µM | 0.216 µM | 0.528 µM | 0.379 µM | 1.21 µM | 0.0557 µM | 0.193 µM | 0.214 µM | 0.482 µM | 0.18 µM | 0.344 µM | 3.15 µM |
| CSc1ccc(C2=NN(C(C)=O)C(c3ccc(-c4ccc(Cl)cc4)o3)C2)cc1 (centres undefined) | 28.9 µM | > 100 µM | 29.1 µM | > 100 µM | 19.3 µM | > 100 µM | > 100 µM | > 100 µM | > 100 µM | 31.3 µM | > 100 µM | 6.06 µM | > 100 µM | 35.2 µM | > 100 µM | 77.7 µM | > 100 µM | 21 µM | 80.9 µM | > 100 µM |
| Fc1ccc(/C=N/n2c(-c3ccc(F)c(Cl)c3)n[nH]c2=S)cc1 | 38.7 µM | > 100 µM | 42.9 µM | > 100 µM | 20.2 µM | 22.5 µM | 44.1 µM | 21.8 µM | 48.3 µM | – | – | 20.6 µM | 48.8 µM | 21.4 µM | 46 µM | 30.2 µM | > 100 µM | 18.3 µM | 37.3 µM | 38.9 µM |
| O=c1c2cc(F)ccc2sc2c(NCCCNCCO)nc3ccccc3c12 | 1.94 µM | 4.01 µM | 1.76 µM | 3.2 µM | 1.56 µM | 1.66 µM | 3.14 µM | 1.61 µM | 3.05 µM | – | – | 1.43 µM | 2.9 µM | 1.79 µM | 3.78 µM | 1.62 µM | 3.14 µM | 1.9 µM | 3.55 µM | 3.03 µM |
| COc1cccc(C2c3cc4c(cc3OC3COC(=O)C32)OCO4)c1OC (centres undefined) | – | > 100 µM | – | > 100 µM | – | – | > 100 µM | – | > 100 µM | – | – | – | > 100 µM | – | > 100 µM | – | > 100 µM | – | > 100 µM | > 100 µM |
